Experimental data: patent US10179927B2, “Electrochemical detection of microorganisms” (priority 2014, dated 2019)
Where two headings read alike, the source gives them in different places. Marks after values point to notes of the source that are not given here.

Legend:
[1] = test system: Escherichia coli; assay: Suitability of colorimetric detection compounds for bioelectrochemical detection of Escherichia coli; assay type: cell-based; settings: compound used for colorimetric detection of Escherichia coli
From the text: Bioelectroanalytical techniques are emerging as ways to enumerate and scrutinize microbial systems. But there is still need in the art for technologies specifically designed for bioelectroanalytical detection of FIB. […] The latter, in particular, makes them unsuitable in self-powering systems.

[2] = test system: E. coli; assay: Current from unconjugated redox active reporter moieties with E. coli in self-powering bioelectrochemical systems (BES, microbial fuel cells); assay type: cell-based, Escherichia coli; settings: 1 kΩ load, ambient temperature
Protocol: Resorufin (TCI-Europe), 2-hydroxy-1,4-naphthoquinone (2H14NQ) (TCI-Europe), 5-hydroxy-1,4-naphthoquinone (5H14NQ) (TCI-Europe) and 5,8-dihydroxy-1,4-naphthoquinone (58H14NQ) (Sigma-Aldrich) were obtained commercially and added to M9 medium in their unconjugated form to achieve a working concentration of 50 μM. Resorufin glycoconjugates (resorufin-β-d-galactopyranoside and resorufin-β-d-glucopyranoside) were obtained commercially (Sigma-Aldrich), whereas 2-hydroxy-1,4-naphthoquinone-β-d-galactopyranoside (2H14NQGal) and 2-hydroxy-1,4-naphthoquinone-β-d-glucopyranoside (2H14NQG1u) were specifically synthesized by Sussex Research Ltd. All reporters were added to a final concentration of 50 μM. Stock concentrations (1.0×10^−3 M) of 2H14NQ and 5H14NQ were prepared by first dissolving in 10 μL of 2 M NaOH and then making up to volume in Type II water (Veolia) whereas 58H14NQ (1.0×10^−3 M) was prepared in 1:1 DMSO:Type II water aliquots. Both stock solutions were stored at −20° C. until needed. Conjugated reporters were maintained as 1 mM stock solutions in Type II water and stored at 5° C. […]
Dual chamber U-tube BESs, in the form of microbial fuel cells (MFCs), were constructed with two 90° 28/15 ball-to-plain-end and socket-to-plain-end glass quick fit elbows (17 mm O.D.×1.8 mm wall thickness) (VWR, Singapore) to form the anode and cathode chambers (Sund et al., Appl. Microbiol. Biotechnol. 2007; 76:561-568.). […] A 1 kΩ load was applied across the circuit and potential difference was recorded using an eDAQ e-corder® data acquisition system (ED 1621-16 channel recorder) equipped with Chart™ software (Bronjo Medi, Singapore) at a rate of 1 data point every 5 min. […]
Naphthoquinones are cheap redox active molecules which are compatible with E. coli and can be readily conjugated to pyranose rings (Rau et al. Environ. Sci. Technol. 2002; 36:1497-1504; Park and Zeikus. Appl. Environ. Microbiol. 2000; 66:1292-1297). […]

[3] = test system: E. coli; assay: Current from unconjugated redox active reporter moieties mediating electron transfer between E. coli and the electrode in ECs; assay type: cell-based, Escherichia coli; settings: 5×10^5 CFU mL^−1 of E. coli; for Maximum recorded current in ECs: unconjugated reporter 50 μM
Protocol: (§1) Resorufin (TCI-Europe), 2-hydroxy-1,4-naphthoquinone (2H14NQ) (TCI-Europe), 5-hydroxy-1,4-naphthoquinone (5H14NQ) (TCI-Europe) and 5,8-dihydroxy-1,4-naphthoquinone (58H14NQ) (Sigma-Aldrich) were obtained commercially and added to M9 medium in their unconjugated form to achieve a working concentration of 50 μM. Resorufin glycoconjugates (resorufin-β-d-galactopyranoside and resorufin-β-d-glucopyranoside) were obtained commercially (Sigma-Aldrich), whereas 2-hydroxy-1,4-naphthoquinone-β-d-galactopyranoside (2H14NQGal) and 2-hydroxy-1,4-naphthoquinone-β-d-glucopyranoside (2H14NQG1u) were specifically synthesized by Sussex Research Ltd. All reporters were added to a final concentration of 50 μM. Stock concentrations (1.0×10^−3 M) of 2H14NQ and 5H14NQ were prepared by first dissolving in 10 μL of 2 M NaOH and then making up to volume in Type II water (Veolia) whereas 58H14NQ (1.0×10^−3 M) was prepared in 1:1 DMSO:Type II water aliquots. Both stock solutions were stored at −20° C. until needed. Conjugated reporters were maintained as 1 mM stock solutions in Type II water and stored at 5° C.
(§2) Escherichia coli strain BL21 was selected to represent a FIB of human origin that contains the uidA and lacZ genes, i.e. a FC, whereas Aeromonas hydrophila (DSM 6173) is an environmental organism that has the lacZ gene but which is not considered a coliform. All organisms were cultured aerobically for 20 h. E. coli was grown in Luria Bertani (Lennox) medium at 37° C., and A. hydrophile at 30° C. in tryptone soy broth (TSB) in a shaking incubator.
(§3) The resulting overnight cultures were diluted in sterile modified M9 medium (Na2HPO4.7H2O (126 mM); KH2PO4 (110 mM); NH4Cl (93 mM); NaCl (42 mM); 1 mL/L vitamin stock solution; tryptone 12.5 g/L; HEPES: 6 g/L; and macro nutrients). The carbon source was either D-galacturonic acid or D-glucuronic acid (3.75 g/L) to achieve a final inoculum density in the range of 1.0×10^0, 5.0×10^0, 5.0×10^1, 5.0×10^2, 5.0×10^3, 5.0×10^4, and 5.0×10^5 CFU mL^−1 in both electrochemical system and the bioelectrochemical system.
Conical ECs with a working volume of 10 mL were used with a customized Teflon cap to accommodate a three electrode configuration along with gas fittings to maintain a moist anaerobic atmosphere. Carbon felt working electrodes (1×1×0.318 cm) (VWR, Singapore) were kept for 24 h in 1 M HCl and stored in deionized (DI) water before use. The electrodes were connected to titanium wire (0.25 mmØ, Sigma-Aldrich) using a nylon nut and bolt. A coiled titanium wire was used as counter electrode and an Ag/AgCl reference electrode (78 mm, 6 mm Outer Ø, Biologic, France) was connected using a 1 M KCl in 1.5% agar salt bridge. The assembled cell was then filled with 1 M KCl solution ending in a 4 mm glass frit (CoralPor™, Biologic, France). The entire assembly was then autoclaved (121° C. for 15 min). Nine mL of degassed modified M9 medium was added to the ECs and supplemented with a reporter to a final concentration of 5.0×10^−5 M in 10 mL working volume. […]
(§4) Following reporter supplement and inoculation with the test microorganism, the ECs were connected to a multichannel potentiostat (Biologic, France) and cyclic voltammetry (CV) and differential pulse voltammetry (DPV) were performed immediately. Data acquisition was recorded by EC-Lab software (Biologic, France). […] A detection event was calculated as 4 times the standard deviation of the baseline and detection times are expressed as the mean of triplicate analyses unless stated otherwise. […]

[4] = test system: Escherichia coli strain BL21; assay: Chronoamperometric detection of E. coli with electrochemically active reporters in three-electrode electrochemical systems (ECs); assay type: cell-based; settings: for Detection time (±std dev): chronoamperometry in ECs, reporter 50 μM; for Detection time for E. coli: inoculum sizes between 5×10^5-5×10^3, ECs (Table 1)
Protocol: as §1, §2, §3
Conical ECs with a working volume of 10 mL were used with a customized Teflon cap to accommodate a three electrode configuration along with gas fittings to maintain a moist anaerobic atmosphere. Carbon felt working electrodes (1×1×0.318 cm) (VWR, Singapore) were kept for 24 h in 1 M HCl and stored in deionized (DI) water before use. The electrodes were connected to titanium wire (0.25 mmØ, Sigma-Aldrich) using a nylon nut and bolt. A coiled titanium wire was used as counter electrode and an Ag/AgCl reference electrode (78 mm, 6 mm Outer Ø, Biologic, France) was connected using a 1 M KCl in 1.5% agar salt bridge. The assembled cell was then filled with 1 M KCl solution ending in a 4 mm glass frit (CoralPor™, Biologic, France). The entire assembly was then autoclaved (121° C. for 15 min). Nine mL of degassed modified M9 medium was added to the ECs and supplemented with a reporter to a final concentration of 5.0×10^−5 M in 10 mL working volume. The ECs were then inoculated with the targeted test organism to achieve a final working volume of 10 mL. The headspace was flushed continuously with sterile humidified N2. The ECs were operated at 30° C., 37° C. or 44.5° C. Stirring was maintained continuously with a magnetic stirrer in the dark to prevent photo-bleaching of the light sensitive mediators.
Following reporter supplement and inoculation with the test microorganism, the ECs were connected to a multichannel potentiostat (Biologic, France) and cyclic voltammetry (CV) and differential pulse voltammetry (DPV) were performed immediately. Data acquisition was recorded by EC-Lab software (Biologic, France). Chronoamperometry (CA) was applied for up to 24 h to detect redox active reporter moieties. A detection event was calculated as 4 times the standard deviation of the baseline and detection times are expressed as the mean of triplicate analyses unless stated otherwise. […]

[5] = test system: E. coli; settings: Perez et al., cited from earlier work
[6] = test system: mixed culture of E. coli and A. hydrophila; assay: Detection time of mixed culture of A. hydrophila and E. coli in ECs; assay type: cell-based, Escherichia coli; Aeromonas hydrophila; settings: 44.5° C.; E. coli constant 5×10^5 CFU mL^−1; A. hydrophila from 5×10^2-5×10^5 CFU mL^−1 (FIG. 6)
Protocol: as §2, §3
Conical ECs with a working volume of 10 mL were used with a customized Teflon cap to accommodate a three electrode configuration along with gas fittings to maintain a moist anaerobic atmosphere. Carbon felt working electrodes (1×1×0.318 cm) (VWR, Singapore) were kept for 24 h in 1 M HCl and stored in deionized (DI) water before use. The electrodes were connected to titanium wire (0.25 mmØ, Sigma-Aldrich) using a nylon nut and bolt. A coiled titanium wire was used as counter electrode and an Ag/AgCl reference electrode (78 mm, 6 mm Outer Ø, Biologic, France) was connected using a 1 M KCl in 1.5% agar salt bridge. […]
as §4

[7] = 37° C., inoculum 5 × 10^2 CFU mL^−1
[8] = 37° C., inoculum 5 × 10^3 CFU mL^−1
[9] = 37° C., inoculum 5 × 10^4 CFU mL^−1
[10] = 37° C., inoculum 5 × 10^5 CFU mL^−1

SMILES	Suitability for bioelectrochemical detection [1]	Current observed in BES [2]	Maximum recorded current in ECs [3]	Detection time (±std dev) [4, 7]	Detection time (±std dev) [4, 8]	Detection time (±std dev) [4, 9]	Detection time (±std dev) [4, 10]	other results
O=C(O)[C@H]1O[C@@H](Oc2cccc3cccnc23)[C@H](O)[C@@H](O)[C@@H]1O [8-hydroxyquinoline glucuronide]	not well suited for bioelectrochemical detection							
O=C1C=CC(=O)c2c(O)ccc(O)c21 [58H14NQ, 5,8-dihydroxy-1,4-naphthoquinone]		2.5 μA	~4 μA					
O=C1C=C(O)C(=O)c2ccccc21 [2H14NQ, 2-hydroxy-1,4-naphthoquinone]		40 μA	~100 μA					Maximum current relative to that achieved with 5H14NQ ([3]; ECs): ~14 times; Maximum current relative to that observed with 58H14NQ ([3]; ECs): ~25 times
O=c1ccc2nc3ccc(O[C@@H]4O[C@H](CO)[C@@H](O)[C@H](O)[C@H]4O)cc3oc-2c1 [ResGlu, resorufin-β-d-glucopyranoside]				431(±29) minutes	397(±52) minutes	309(±33) minutes	259(±19) minutes	Detection time ([4]; inoculum size 5×10^3 CFU mL^−1, ECs): 6.6 h; Detection time for E. coli [4]: 258 to 397 min
Nc1ccc(O[C@@H]2O[C@H](CO)[C@H](O)[C@H](O)[C@H]2O)cc1 [4-APgal, 4-aminophenyl-β-d-galactopyranoside]	not well suited for bioelectrochemical detection							Detection time ([5]; 1 CFU mL^−1 (laboratory sample)): 10 h; Detection time ([5]; 4.5 CFU mL^−1 (marine sample)): 7.3 h
O=C1C=C(O[C@@H]2O[C@H](CO)[C@H](O)[C@H](O)[C@H]2O)C(=O)c2ccccc21 [2H14NQGal, 2-hydroxy-1,4-naphthoquinone-β-d-galactopyranoside]				413(±14) minutes	359(±13) minutes	143(±17) minutes	113(±13) minutes	Detection time ([4]; inoculum equivalent to 5×10^3 CFU mL^−1 of Perez et al., n=3): 6.87 h
O=C1C=C(O[C@@H]2O[C@H](CO)[C@@H](O)[C@H](O)[C@H]2O)C(=O)c2ccccc21 [2H14NQGlu, 2-hydroxy-1,4-naphthoquinone-β-d-glucopyranoside]				339(±41) minutes	187(±31) minutes	142(±11) minutes	120(±21) minutes	Detection time, mixed culture [6]: 125 to 172 min; Detection time (±std dev) ([4]; 30° C., inoculum 5 × 10^2 CFU mL^−1): 832* minutes; Detection time (±std dev) ([4]; 30° C., inoculum 5 × 10^3 CFU mL^−1): 574* minutes; Detection time (±std dev) ([4]; 30° C., inoculum 5 × 10^5 CFU mL^−1): 168* minutes; Detection time ([4]; 44.5° C., 10 organism, FIG. 7): 19 h; Detection time ([4]; 44.5° C., 500 organisms, FIG. 7): 12.5 h; Detection time ([4]; 44.5° C., 5000 organisms, FIG. 7): ~9 h; Detection time ([4]; 44.5° C., "CFU mL^−1 of E. coli" (number not given), FIG. 7): ~19 h; Detection time ([4]; 44.5° C., inoculum size 500 CFU mL^−1, FIG. 7): less than 10 h; Detection time for E. coli [4]: 120 to 188 min
O=C1C=CC(=O)c2c(O)cccc21 [5H14NQ, 5-hydroxy-1,4-naphthoquinone]		6 μA	~7 μA					
O=C(O)[C@H]1O[C@@H](Oc2ccc([N+](=O)[O-])cc2)[C@H](O)[C@@H](O)[C@@H]1O [4-NPglu, 4-nitrophenol-β-d-glucuronidase]	not well suited for bioelectrochemical detection							
